From patent publication US9133158B2, “Bicyclic dihydroisoquinoline-1-one derivatives” (Hoffmann-La Roche Inc., priority 2011, dated 2015)
pEC50: −log10 of the molar value.

Columns and labels:
human CYP11B2 = target: T1, human CYP11B2 (Homo sapiens, UniProt P19099); test: G-402 cellular enzyme assay, human CYP11B2 (aldosterone release, HTRF); type: cell-based; details: G-402 cells, 1 μM Deoxycorticosterone
T1 construct: expressed in transfected cells
T1 sequence (P19099 25-503): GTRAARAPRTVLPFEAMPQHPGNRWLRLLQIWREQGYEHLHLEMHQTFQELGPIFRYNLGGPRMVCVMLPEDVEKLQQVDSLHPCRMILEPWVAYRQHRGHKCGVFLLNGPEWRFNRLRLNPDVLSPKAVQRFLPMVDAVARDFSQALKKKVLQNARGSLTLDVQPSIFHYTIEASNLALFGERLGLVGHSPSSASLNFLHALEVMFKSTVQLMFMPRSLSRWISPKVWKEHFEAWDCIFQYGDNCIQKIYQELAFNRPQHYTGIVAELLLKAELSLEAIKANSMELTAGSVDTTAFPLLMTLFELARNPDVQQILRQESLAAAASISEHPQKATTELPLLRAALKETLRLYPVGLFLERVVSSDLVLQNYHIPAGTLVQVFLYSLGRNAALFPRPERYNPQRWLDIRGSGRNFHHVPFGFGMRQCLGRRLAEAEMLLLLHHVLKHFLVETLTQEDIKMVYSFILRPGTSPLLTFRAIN
Outline: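 Stable G-402 transfectants; 16 h incubation with inhibitor plus substrate — CYP11B2: 1 μM deoxycorticosterone, aldosterone read; CYP11B1: 1 μM deoxycortisol, cortisol read. HTRF on supernatant. Medium DMEM/F12, 2.5% charcoal FCS. EC50 via MMF sigmoidal fit.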

human CYP11B1 = target: T2, human CYP11B1 (Homo sapiens, UniProt P15538); test: G-402 cellular enzyme assay, human CYP11B1 (cortisol release, HTRF); type: cell-based; details: G-402 cells, 1 μM Deoxycortisol
T2 construct: expressed in transfected cells
T2 sequence (P15538 25-503): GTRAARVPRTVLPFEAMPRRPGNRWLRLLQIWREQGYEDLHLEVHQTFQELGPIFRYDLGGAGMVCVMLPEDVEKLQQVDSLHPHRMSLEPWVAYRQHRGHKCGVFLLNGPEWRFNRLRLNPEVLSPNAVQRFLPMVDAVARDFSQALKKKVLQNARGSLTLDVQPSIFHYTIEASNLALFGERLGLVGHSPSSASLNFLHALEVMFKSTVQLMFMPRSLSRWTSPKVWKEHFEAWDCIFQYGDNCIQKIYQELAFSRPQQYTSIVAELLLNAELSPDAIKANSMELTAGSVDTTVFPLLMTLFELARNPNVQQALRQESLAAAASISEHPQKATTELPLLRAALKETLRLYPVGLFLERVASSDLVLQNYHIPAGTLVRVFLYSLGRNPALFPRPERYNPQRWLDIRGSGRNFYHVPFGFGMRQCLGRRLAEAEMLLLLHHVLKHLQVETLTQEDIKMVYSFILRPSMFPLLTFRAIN
Text: Herein we identified the use of the G-402 cell line as a host cell to ectopically express (transiently or stably) enzymes of the CYP11 family. Specifically we developed stable G-402 cells expressing ectopically human CYP11B1, human CYP11B2, human CYP11A1, cynmolgus CYP11B1 or cynomolgus CYP11B2 enzyme activity. Importantly the identified cell line G-402 expresses co-factors (adrenodoxin and adrenodoxin reductase) important for the activity of the CYP11 family and no relevant enzyme activity of the CYP11 family (in comparison to H295R cells) was detected in these cells. Therefore the G-402 cell line is uniquely suited as a host cell for the ectopic expression of enzymes from the CYP11 family.
G-402 cells can be obtained from ATCC(CRL-1440) and were originally derived from a renal leiomyoblastoma.
The expression plasmids contain the ORF for either human/cyno CYP11B1 or CYP11B2 under the control of a suitable promoter (CMV-promoter) and a suitable resistance marker (neomycin). Using standard techniques the expression plasmid is transfected into G-402 cells and these cells are then selected for expressing the given resistance markers. Individual cell-clones are then selected and assessed for displaying the desired enzymatic activity using 11-Deoxycorticosterone (Cyp11B2) or 11-Deoxycortisol (Cyp11B1) as a substrate.
G-402 cells expressing CYP11 constructs were established as described above and maintained in McCoy's 5a Medium Modified, ATCC Catalog No. 30-2007 containing 10% FCS and 400 μg/ml G418 (Geneticin) at 37° C. under an atmosphere of 5% CO2/95% air.
Cellular enzyme assays were performed in DMEM/F12 medium containing 2.5% charcoal treated FCS and appropriate concentration of substrate (0.3-10 uM 11-Deoxycorticosterone, 11-Deoxycortisol or Corticosterone). For assaying enzymatic activity, cells were plated onto 96 well plates and incubated for 16 h. An aliquot of the supernatant is then transferred and analyzed for the concentration of the expected product (Aldosterone for CYP11B2; Cortisol for CYP11B1). The concentrations of these steroids can be determined using HTRF assays from CisBio analyzing either Aldosterone or Cortisol.
Inhibition of the release of produced steroids can be used as a measure of the respective enzyme inhibition by test compounds added during the cellular enzyme assay. The dose dependent inhibition of enzymatic activity by a compound is calculated by means of plotting added inhibitor concentrations (x-axes) vs. measured steroid/product level (y-axes). The inhibition is then calculated by fitting the following 4-parameter sigmoidal function (Morgan-Mercer-Flodin (MMF) model) to the raw data points using the least squares method:
[formula] wherein, A is the maximum y value, B is the EC50 factor determined using XLFit, C is the minimum y value and D is the slope value.
EC50 values for compounds claimed herein were tested with the G402-based assay system described. Cyp11B2 enzyme activity was tested in presence of 1 μM Deoxycorticosterone and variable amounts of inhibitors; Cyp11B1 enzyme activity was tested in presence of 1 μM Deoxycortisol and variable amounts of inhibitors.

Row | SMILES | pEC50 (human CYP11B2) | pEC50 (human CYP11B1)
1 | CC(=O)N[C@@H]1CCCc2c1cncc2N1C(=O)c2ccc(Cl)cc2[C@@H]1C (single isomer, unassigned) [Example 366, N-[(R or S)-4-((S or R)-5-Chloro-3-methyl-1-oxo-1,3-dihydro-isoindol-2-yl)-5,6,7,8-tetrahydro-isoquinolin-8-yl]-acetamide] | 8.36 | 7.09
2 | CC(=O)NC1CCCc2c1cncc2N1Cc2cc(Cl)ccc2C1=O (single isomer, unassigned) [Example 322, N-[(S or R)-4-(5-Chloro-1-oxo-1,3-dihydro-isoindol-2-yl)-5,6,7,8-tetrahydro-isoquinolin-8-yl]-acetamide] | 5.29 | 4.40
3 | CC1(C)c2cc(Cl)ccc2C(=O)N1c1cncc(CN2CCCC2=O)c1 [Example 413, 5-Chloro-3,3-dimethyl-2-[5-(2-oxo-pyrrolidin-1-ylmethyl)-pyridin-3-yl]-2,3-dihydro-isoindol-1-one] | 7.68 | 6.09
4 | CCC1c2cc(Cl)ccc2C(=O)N1c1cncc(F)c1 (single isomer, unassigned) [Example 310, (S or R)-5-Chloro-3-ethyl-2-(5-fluoro-pyridin-3-yl)-2,3-dihydro-isoindol-1-one] | 7.78 | 5.40
5 | CC(=O)NC1CCCc2c1cncc2N1CCc2cc(Cl)ccc2C1=O (single isomer, unassigned) [Example 321, N-((S or R)-6-Chloro-1-oxo-3,4,5′,6′,7′,8′-hexahydro-1H-[2,4′]biisoquinolinyl-8′-yl)-acetamide] | 7.25 | 5.40
6 | CCC(=O)N1CCN(c2cncc(N3C(=O)c4ccc(Cl)cc4C3(C)C)c2)CC1 [Example 456, 5-Chloro-3,3-dimethyl-2-[5-(4-propionyl-piperazin-1-yl)-pyridin-3-yl]-2,3-dihydro-isoindol-1-one] | 8.92 | 6.98
7 | CCS(=O)(=O)NCc1cncc(N2Cc3cc(Cl)ccc3C2=O)c1 [Example 115, Ethanesulfonic acid [5-(5-chloro-1-oxo-1,3-dihydro-isoindol-2-yl)-pyridin-3-ylmethyl]-amide] | 6.17 | 4.87
8 | O=C(Nc1ccccc1)c1cncc(N2CCc3cc(Cl)ccc3C2=O)c1 [Example 46, 5-(6-Chloro-1-oxo-3,4-dihydro-1H-isoquinolin-2-yl)-N-phenyl-nicotinamide] | 6.16 | 4.86
9 | CCC1c2ccc(Cl)cc2C(=O)N1c1cncc(F)c1 (single isomer, unassigned) [Example 308, (R or S)-6-Chloro-3-ethyl-2-(5-fluoro-pyridin-3-yl)-2,3-dihydro-isoindol-1-one] | 6.42 | 4.58
10 | CCC(=O)N[C@@H]1CCCc2c1cncc2N1C(=O)c2ccc(Cl)cc2[C@H]1CC (single isomer, unassigned) [Example 354, N-[(R or S)-4-((R or S)-5-Chloro-3-ethyl-1-oxo-1,3-dihydro-isoindol-2-yl)-5,6,7,8-tetrahydro-isoquinolin-8-yl]-propionamide] | 7.91 | 6.46

Now from value to compound:

Row | pEC50 (human CYP11B2) | pEC50 (human CYP11B1) | SMILES
11 | 6.78 | 5.50 | CC1(C)c2ccc(F)cc2C(=O)N1c1cncc(CNS(C)(=O)=O)c1 [Example 406, N-[5-(5-Fluoro-1,1-dimethyl-3-oxo-1,3-dihydro-isoindol-2-yl)-pyridin-3-ylmethyl]-methane-sulfonamide]
12 | 7.25 | 6.29 | O=C1c2ccc(Cl)cc2CCN1c1cnccc1C(F)(F)F [Example 22, 6-Chloro-2-(4-trifluoromethyl-pyridin-3-yl)-3,4-dihydro-2H-isoquinolin-1-one]
13 | 7.64 | 6.66 | O=C1c2ccc(Cl)cc2CCN1c1cncc(-c2cc(F)ccc2F)c1 [Example 235, 6-Chloro-2-[5-(2,5-difluoro-phenyl)-pyridin-3-yl]-3,4-dihydro-2H-isoquinolin-1-one]
14 | 7.22 | 6.68 | CC(Nc1ncco1)c1cncc(N2CCc3cc(Cl)ccc3C2=O)c1 (centres unmarked) [Example 272, 6-Chloro-2-{5-[1-(oxazol-2-ylamino)-ethyl]-pyridin-3-yl}-3,4-dihydro-2H-isoquinolin-1-one]
15 | 7.44 | 5.62 | CC1(C)c2cc(Cl)ccc2C(=O)N1c1cncc(Cn2ccc(N)n2)c1 [Example 380, 2-[5-(3-Amino-pyrazol-1-ylmethyl)-pyridin-3-yl]-5-chloro-3,3-dimethyl-2,3-dihydro-isoindol-1-one]
16 | 8.96 | 7.59 | Cc1cnn(C)c1-c1cncc(N2CCc3cc(Cl)ccc3C2=O)c1 [Example 245, 6-Chloro-2-[5-(2,4-dimethyl-2H-pyrazol-3-yl)-pyridin-3-yl]-3,4-dihydro-2H-isoquinolin 1-one]
17 | 8.40 | 6.44 | CC(=O)N1CCC(c2cncc(N3C(=O)c4ccc(Cl)cc4C3(C)C)c2)CC1 [Example 461, 2-(1′-Acetyl-1′,2′,3′,4′,5′,6′-hexahydro-[3,4′]bipyridinyl-5-yl)-5-chloro-3,3-dimethyl-2,3-dihydro-isoindol-1-one]
18 | 8.55 | 5.78 | CCS(=O)(=O)N1CCCC(c2cncc(N3C(=O)c4ccc(Cl)cc4C3(C)C)n2)C1 (centres unmarked) [Example 464, 5-Chloro-2-[6-(1-ethanesulfonyl-piperidin-3-yl)-pyrazin-2-yl]-3,3-dimethyl-2,3-dihydro-isoindol-1-one]
19 | 7.52 | 6.41 | O=C1c2ccc(Cl)cc2CCN1c1cncc(Cn2cc3ccccc3n2)c1 [Example 183, 6-Chloro-2-(5-indazol-2-ylmethyl-pyridin-3-yl)-3,4-dihydro-2H-isoquinolin-1-one]
20 | 6.36 | 5.30 | CNC(C)c1cncc(N2CCc3cc(Cl)ccc3C2=O)c1 (centres unmarked) [Example 265, 6-Chloro-2-[5-(1-methylamino-ethyl)-pyridin-3-yl]-3,4-dihydro-2H-isoquinolin-1-one]
21 | 8.47 | 6.35 | CCC(=O)N[C@H]1CCc2c1cncc2N1C(=O)c2ccc(Cl)cc2[C@H]1C (single isomer, unassigned) [Example 377, N-[(S or R)-4-((R or S)-5-Chloro-3-methyl-1-oxo-1,3-dihydro-isoindol-2-yl)-6,7-dihydro-5H-[2]pyrindin-7-yl]-propionamide]
22 | 5.77 | 4.98 | O=C(c1cncc(N2CCc3cc(Cl)ccc3C2=O)c1)N1CCC(O)C1 (centres unmarked) [Example 40, 6-Chloro-2-[5-(3-hydroxy-pyrrolidine-1-carbonyl)-pyridin-3-yl]-3,4-dihydro-2H-isoquinolin-1-one]
